According to patent publication US20040002457A1, “Inhibition of virus anchorage by RGG domain of a cell surface-expressed protein, polynucleotide coding for said RGG domain, therapeutic uses thereof by inhibition of microorganism or protein ligand binding to the cell-surface-expressed protein” (priority 2002, published 2004):
Like-named read-outs stand apart in the source and are kept apart here. No end group written: not given here.

How the values were obtained:
HIV particles = settings: CD4+ target cells (refs 1, 4, 13, 26); cited from earlier work
HIV-1 LAI [1] = settings: cited from earlier work
[2] = target: T1, N-terminal part of nucleolin (Homo sapiens, UniProt P19338); assay: Biotinylated HB-19A binding to in vitro translated N-terminal part of nucleolin; settings: amino acids 1 to 308, contains the acidic stretches (FIG. 6)
T1 construct: pcDNA4 NucN and pcDNA4 NucC containing amino acids 1-308 and 309-707; vector-encoded His leader of pcDNA4His/Max C (only the vector name is printed); made in house; host or cells: cell-free: TNT coupled rabbit reticulocyte lysate (Promega), 35S-Met/Cys labelled, used crude
Procedure: (§1) In vitro transcription and translation of human nucleolin. The TNT coupled reticulocyte lysate system (Promega) was used to produce the wild-type nucleolin (pcDNA4 Nuc) and the N- and C-terminal parts of nucleolin (pcDNA4 NucN and pcDNA4 NucC containing amino acids 1-308 and 309-707) by in vitro transcription/translation. Reactions were performed by using 2 μg of each plasmid and 20 μCi of […].
(§2) To assay the HB-19A binding capacity of the generated nucleolin and nucleolin truncated constructs, 25 μl of translation products were diluted in 25 μl of modified BI buffer (20 mM Tris-HCl, pH 7.6,100 mM NaCl, 50 mM KCl, 2 mM EDTA, 2% Triton X-100,1000 U/ml aprotinin), centrifuged at 12,000 g for 10 min at 4° C. and diluted in 150 μl of PBS. Binding reactions were performed by incubating 200 μl of each diluted lysates with the biotinylated HB-19A for 1 h at 4° C. Complexes formed between nucleolin deletion constructs and biotinylated HB-19A were isolated by purification of the extracts using avidin-agarose (100 μl) in PBS-EDTA (12). After 2 h of incubation at 4° C., the samples were washed extensively with PBS-EDTA. The purified proteins were eluted by heating in the electrophoresis sample buffer containing SDS and analyzed by SDS-PAGE.

CHO K1 cells = assay: Biotinylated HB-19A binding to wild type CHO K1 cells; set-up: species or system Chinese hamster; settings: wild type CHO K1 cells (FIG. 3B)
Procedure: (§3) Assay of HB-19A binding to cells. Cells were plated at 10^4 cells/well in 96-well-plates for the ^1251-labeled HB-19A binding or at 10^5 cells/well, in 24-well-plates for the biotinylated HB-19A binding. Twenty four hours later, binding experiments were performed after incubation of the cell monolayers in fresh culture medium for 1 h at room temperature (about 21° C.) in order to cool cells. It should be noted that intracellular entry of HB-19A is inhibited more than 90% at room temperature. Cells were incubated (30 min at room temperature) with different concentrations of the ^125I-labeled HB-19A or the biotinylated HB-19A before washing cells in culture medium containing 10% FCS. For total amount of binding (specific and non-specific), cells were washed 7 times with culture medium. For specific binding measurements, cells were first washed 3 times in culture medium supplemented with 150 mM NaCl thus bringing the final concentration of NaCl to 300 mM followed by 4 washings in culture medium. Washed cells were processed to reveal either the ^125I-labeled HB-19A or the biotinylated HB-19A. For the ^1251-labeled HB-19A binding, cell monolayers were extracted in 1% SDS and the radioactivity was measured in an automatic gamma counter (LKB Wallac Clini Gamma 1272). […] Finally, ortho-phenylenediamine solution was added in the dark and the absorbance was measured at 405 nm.

RGG domain of nucleolin = assay: Biotinylated HB-19A binding to GST constructs of nucleolin containing the RGG domain; set-up: species or system human; settings: constructs containing the RGG domain (FIG. 8, lanes 1234G, R234G, G)
Procedure: Expression and purification of recombinant nucleolin constructs. Escherichia coli (E. coli) BL21 (DE3) cells were transformed with each pGEX-N3 plasmid coding for truncated derivatives of the C-terminal part of human nucleolin. Cells were grown overnight at 37° C. in 100 ml of Terrific Broth containing 100 μg of ampicillin per ml. After 1:50 dilution in 100 ml of fresh medium, cells were grown at 30° C. to a 600 nm optical density of approximately 0.5 (6 h) and induced with 0.5 mM isopropyl-1-thio-D-galactopyranoside (IPTG) for an additional 2 h. Bacteria were pelleted at 4,000 g for 10 min at 4° C., resuspended in 5 ml of PBS containing 0.2 mM phenylmethylsulphonyl flouride (PMSF) and 1 mM DTT, and frozen at −20° C. overnight. […] The presence of proteins in cell extracts was monitored by SDS-Page with Coomassie blue staining, and their respective concentration estimated and adjusted.
To assay HB-19A binding capacity, bacterial extracts were first diluted 5-fold in PBS-EDTA before centrifugation at 12,000 g for 10 min at 4° C. […] The purified proteins were eluted by heating in the electrophoresis sample buffer containing SDS and analyzed by immunoblotting using anti-GST monoclonal antibody B-14 (Santa Cruz Biotechnology, Inc.).

[3] = system: C-terminal part of nucleolin; assay: Biotinylated HB-19A binding to in vitro translated C-terminal part of nucleolin; set-up: species or system human; settings: amino acids 309-707 (FIG. 6)
Procedure: as §1, §2

HeLa P4 cells = assay: HB-19A binding to HeLa P4 cells (125I-labeled HB-19A); set-up: species or system human; settings: HeLa P4 cells washed at 300 mM NaCl (FIG. 3A)
Procedure: as §3

HIV-1 LAI [4] = assay: HIV-1 LAI infection in HeLa P4 cells (LTR-lacZ, β-galactosidase); format: cell-based; settings: HB-19A 1 μM (FIG. 9)
Procedure: Assay of HIV infection in HeLa CD4+cells. HIV-1 LAI infection was monitored indirectly in HeLa-CD4-LTR-/ac Z cells (HeLa P4 cells) containing the bacterial lac Z gene under the control of HIV-1 LTR. HIV-1 entry and replication result in the activation of the HIV-1 LTR leading to the expression of p-galactosidase. At 48 h post-infection, cells were lysed and assayed for β-galactosidase activity using the chlorophenol-red-β-D-galactopyranoside as a substrate. The optical density was measured at 570 nm (1). The HIV-1 Ba-L infection was monitored in HeLa-CD4-LTR-/ac Z cells but expressing also CCR5 (HeLa F4-C5 cells) as above (1).
Assay of peptides for their activity. Each peptide is tested at different concentrations to investigate their capacity to inhibit HIV infection. Each peptide is investigated for its binding capacity to the HB-19, using biotin-coupled HB-19.

full-length nucleolin = target: T2, full-length nucleolin (Homo sapiens, UniProt P19338); assay: Biotinylated HB-19A binding to in vitro translated full-length nucleolin (avidin-agarose); settings: amino acids 1 to 707, 0.5 or 1 μM biotinylated HB-19A (FIG. 6)
T2 construct: labeled full length nucleolin, N-terminal and the C-terminal parts containing amino acids 1 to 707; vector-encoded His leader of pcDNA4His/Max C (only the vector name is printed); made in house; host or cells: cell-free: TNT coupled rabbit reticulocyte lysate (Promega), 35S-Met/Cys labelled, used crude
Procedure: as §1, §2

CHO 618 cells = assay: Biotinylated HB-19A binding to mutant CHO 618 cells; set-up: species or system Chinese hamster; settings: CHO 618 devoid of heparan- and chondroitin-sulfate proteoglycans (FIG. 3B)
Procedure: as §3

HIV = settings: 1 μM HB-19A, different types of cells (refs 1, 10); cited from earlier work

Chain of C-terminal part of nucleolin (P19338 312-710 limits assumed): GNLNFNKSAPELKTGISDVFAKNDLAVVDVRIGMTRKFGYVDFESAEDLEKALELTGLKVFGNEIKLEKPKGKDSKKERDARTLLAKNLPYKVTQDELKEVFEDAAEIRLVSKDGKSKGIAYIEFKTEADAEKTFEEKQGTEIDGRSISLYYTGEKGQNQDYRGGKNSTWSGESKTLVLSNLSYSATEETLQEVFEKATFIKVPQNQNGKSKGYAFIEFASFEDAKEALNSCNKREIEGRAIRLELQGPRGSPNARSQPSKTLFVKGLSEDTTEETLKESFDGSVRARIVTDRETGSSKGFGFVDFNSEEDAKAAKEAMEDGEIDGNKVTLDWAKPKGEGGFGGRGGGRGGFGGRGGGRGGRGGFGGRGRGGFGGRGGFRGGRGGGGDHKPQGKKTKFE
T1 sequence (P19338 1-308): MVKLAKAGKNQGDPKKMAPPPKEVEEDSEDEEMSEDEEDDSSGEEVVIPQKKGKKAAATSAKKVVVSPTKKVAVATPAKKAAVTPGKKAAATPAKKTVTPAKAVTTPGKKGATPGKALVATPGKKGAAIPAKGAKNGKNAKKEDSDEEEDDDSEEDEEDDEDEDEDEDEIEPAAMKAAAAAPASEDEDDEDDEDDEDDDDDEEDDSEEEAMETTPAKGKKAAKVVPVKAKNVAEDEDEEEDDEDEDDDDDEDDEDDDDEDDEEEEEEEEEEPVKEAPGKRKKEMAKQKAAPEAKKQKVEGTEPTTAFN
Chain of RGG domain of nucleolin (P19338 648-710 limits assumed): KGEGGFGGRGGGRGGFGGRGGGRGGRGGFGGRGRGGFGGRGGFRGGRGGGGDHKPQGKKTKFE
T2 sequence (P19338 whole entry, the tested form may be a part): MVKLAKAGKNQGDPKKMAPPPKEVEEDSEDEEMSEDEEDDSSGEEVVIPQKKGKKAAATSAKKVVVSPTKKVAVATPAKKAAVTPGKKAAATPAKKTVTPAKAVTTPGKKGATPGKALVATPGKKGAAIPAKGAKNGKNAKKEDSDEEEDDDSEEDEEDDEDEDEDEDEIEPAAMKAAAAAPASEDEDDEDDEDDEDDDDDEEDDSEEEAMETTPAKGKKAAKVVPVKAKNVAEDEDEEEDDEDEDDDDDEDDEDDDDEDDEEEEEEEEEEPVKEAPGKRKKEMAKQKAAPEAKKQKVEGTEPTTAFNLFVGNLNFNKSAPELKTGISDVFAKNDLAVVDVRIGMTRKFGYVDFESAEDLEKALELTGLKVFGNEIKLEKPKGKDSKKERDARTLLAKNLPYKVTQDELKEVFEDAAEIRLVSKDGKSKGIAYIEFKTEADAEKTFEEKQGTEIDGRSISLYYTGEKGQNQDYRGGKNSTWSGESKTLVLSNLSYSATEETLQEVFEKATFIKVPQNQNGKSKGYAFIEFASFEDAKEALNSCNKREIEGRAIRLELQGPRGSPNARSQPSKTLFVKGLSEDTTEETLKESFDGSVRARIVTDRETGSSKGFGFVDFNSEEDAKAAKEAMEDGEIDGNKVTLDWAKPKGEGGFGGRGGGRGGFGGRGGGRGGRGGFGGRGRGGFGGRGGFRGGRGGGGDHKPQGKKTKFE

5[Kψ(CH2N)PR]-TASP [HB-19]
anchorage of HIV particles (HIV particles): inhibited | HIV entry at the level of HIV attachment, pretreatment of cells (HIV-1 LAI [1]; HeLa P4 cells (refs 1, 4)): inhibition of HIV entry | resistance to HIV of pretreated cells after removal of the medium containing the inhibitor (HIV-1 LAI [1]; several hours after removal (ref 1)): remain resistant

HB-19A: new generation of HB-19 presenting pentavalently the Kψ(CH2N)PR moiety coupled to a modified TASP template (peptide Lys-Pro-Arg; chain KKKKA; also: Kψ(CH2N)P reduced bond, pentavalent on modified TASP template)
binding to N-terminal part of nucleolin [2]: did not bind at all | concentration at which binding reaches saturation (CHO K1 cells): 1 µM | HB-19A concentration at which binding reaches maximum value (RGG domain of nucleolin): 5 µM | anchorage of HIV particles (HIV particles): inhibited | binding to C-terminal part of nucleolin [3]: bound efficiently | concentration at which specific binding reaches saturation (HeLa P4 cells): 1 µM | HIV entry at the level of HIV attachment, pretreatment of cells (HIV-1 LAI [4]): inhibition of HIV entry | binding to full-length nucleolin (full-length nucleolin): bind | HB-19A binding profile compared with CHO K1 (CHO 618 cells): no significant difference | inhibition of HIV infection (HIV): more than 95%

RRWCYRKDKPYRKCR [TW70, anti-HIV cyclic peptide specific for CXCR4, reference compound]
anchorage of HIV particles (HIV particles): inhibited

fibroblast growth factor 2: growth factor which binds heparan sulfate proteoglycans
anchorage of HIV particles (HIV particles): inhibited
